Publication PMC6479915, “Novel Benzene-Based Carbamates for AChE/BChE Inhibition: Synthesis and Ligand/Structure-Oriented SAR Study” (International Journal of Molecular Sciences, 2019)

molecular target: T1, BChE from equine serum (Equus caballus, UniProt P81908); experiment: In vitro BChE inhibition, modified Ellman's method; assay type: biochemical; settings: not given
T1 construct: BChE (from equine serum); purchased Sigma, St. Louis, MO, USA; host or cells: equine serum
T1 sequence (P81908 whole entry): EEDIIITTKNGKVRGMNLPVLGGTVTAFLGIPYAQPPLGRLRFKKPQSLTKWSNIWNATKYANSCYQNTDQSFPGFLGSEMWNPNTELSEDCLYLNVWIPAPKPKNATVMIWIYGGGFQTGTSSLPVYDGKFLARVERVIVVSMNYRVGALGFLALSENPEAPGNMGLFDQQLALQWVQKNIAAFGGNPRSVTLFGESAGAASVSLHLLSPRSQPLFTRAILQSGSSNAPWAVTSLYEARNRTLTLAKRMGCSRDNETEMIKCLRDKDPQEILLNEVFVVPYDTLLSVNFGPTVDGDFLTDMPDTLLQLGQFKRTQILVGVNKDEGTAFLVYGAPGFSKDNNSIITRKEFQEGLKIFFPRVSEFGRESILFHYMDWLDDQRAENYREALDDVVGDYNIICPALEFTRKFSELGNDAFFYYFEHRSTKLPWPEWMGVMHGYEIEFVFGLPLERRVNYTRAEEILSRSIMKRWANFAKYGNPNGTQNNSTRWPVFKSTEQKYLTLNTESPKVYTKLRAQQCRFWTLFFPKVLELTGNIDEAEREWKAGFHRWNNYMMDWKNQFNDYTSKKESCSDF

CCN(C(=O)OC)C(C)C(=O)c1ccccc1 (stereo not drawn) [Compound 1, Methyl ethyl(1-oxo-1-phenylpropan-2-yl)carbamate] was tested. Which IC50 did it give?
Its IC50 is 227.9 ± 0.9 µM.

How did the IC50 turn out when COC(=O)N(C)C(C)C(=O)c1cccc2ccccc12 (stereo not drawn) [Compound 35] was run?
Its IC50 is 150 ± 7.13 µM.

How did the IC50 turn out when COC(=O)N(C)C(C)C(=O)c1ccc(Br)cc1 (stereo not drawn) [Compound 9, Methyl (1-(4-bromophenyl)-1-oxopropan-2-yl)(methyl)carbamate] was run?
Its IC50 is 224.1 ± 2.19 µM.

For CC(C(=O)c1ccc(Br)cc1)N(C)C(=O)Oc1ccccc1 (stereo not drawn) [Compound 20, Phenyl (1-(4-bromophenyl)-1-oxopropan-2-yl)(methyl)carbamate], which IC50 is on record?
Its IC50 is 44.1 ± 1.71 µM.

Which IC50 does the source give for CC(C(=O)c1ccc2c(c1)OCO2)N(C)C(=O)Oc1ccccc1 (stereo not drawn) [Compound 22, Phenyl (1-(benzo[d][1,3]dioxol-5-yl)-1-oxopropan-2-yl)(methyl)carbamate] here?
Its IC50 is 53.6 ± 0.72 µM.

Cc1ccc(C(=O)C(C)N(C)C(=O)Oc2ccccc2)cc1 (stereo not drawn) [Compound 18, Phenyl methyl(1-oxo-1-(p-tolyl)propan-2-yl)carbamate] was tested. Which IC50 did it give?
Its IC50 is 87.6 ± 2.37 µM.

For CCC(C(=O)c1ccccc1)N(CC)C(=O)OCc1ccccc1 (stereo not drawn) [Compound 25, Benzyl ethyl(1-oxo-1-phenylbutan-2-yl)carbamate], which IC50 is on record?
The IC50 was 21.3 ± 0.48 µM.

COC(=O)N(C)C(C)C(=O)c1ccc(C)cc1 (stereo not drawn) [Compound 7, Methyl methyl(1-oxo-1-(p-tolyl)propan-2-yl)carbamate] was tested. Which IC50 did it give?
The IC50 was 181 ± 12 µM.

With COc1ccc(C(=O)C(C)N(C)C(=O)OCc2ccccc2)cc1 (stereo not drawn) [Compound 29, Benzyl (1-(4-methoxyphenyl)-1-oxopropan-2-yl)(methyl)carbamate] as the molecule, how does the IC50 read?
The IC50 was 57.39 ± 0.02 µM.

How did the IC50 turn out when CC(C(=O)c1ccc(Cl)c2ccccc12)N(C)C(=O)OCc1ccccc1 (stereo not drawn) [Compound 40, Benzyl (1-(4-chloronaphthalen-1-yl)-1-oxopropan-2-yl)(methyl)carbamate] was run?
The IC50 was 42.75 ± 0.31 µM.

For CC(C(=O)c1ccc(Cl)c2ccccc12)N(C)C(=O)Oc1ccccc1 (stereo not drawn) [Compound 37, Phenyl (1-(4-chloronaphthalen-1-yl)-1-oxopropan-2-yl)(methyl)carbamate], which IC50 is on record?
The IC50 was 13.5 ± 0.47 µM.

Which IC50 does the source give for Cc1cccc(C(=O)C(C)N(C)C(=O)Oc2ccccc2)c1 (stereo not drawn) [Compound 15, Phenyl methyl(1-oxo-1-(m-tolyl)propan-2-yl)carbamate] here?
Its IC50 is 48.29 ± 0.31 µM.

Cc1ccc(C(=O)C(C)N(C)C(=O)OCc2ccccc2)cc1C (stereo not drawn) [Compound 33, Benzyl (1-(3,4-dimethylphenyl)-1-oxopropan-2-yl)(methyl)carbamate] was tested. Which IC50 did it give?
The IC50 was 16.9 ± 0.22 µM.

For Cc1ccc(C(=O)C(C)N(C)C(=O)Oc2ccccc2)cc1C (stereo not drawn) [Compound 21, Phenyl (1-(3,4-dimethylphenyl)-1-oxopropan-2-yl)(methyl)carbamate], which IC50 is on record?
The IC50 was 26.41 ± 0.05 µM.

Which IC50 does the source give for COc1ccc(C(=O)C(C)N(C)C(=O)Oc2ccccc2)cc1 (stereo not drawn) [Compound 17, Phenyl (1-(4-methoxyphenyl)-1-oxopropan-2-yl)(methyl)carbamate] here?
The IC50 was 106 ± 1.94 µM.

For COC(=O)N(C)C(C)C(=O)c1cccc(Cl)c1 (stereo not drawn) [Compound 5, Methyl (1-(3-chlorophenyl)-1-oxopropan-2-yl)(methyl)carbamate], which IC50 is on record?
Its IC50 is 113.6 ± 0.29 µM.

CC(C(=O)c1ccc2c(c1)OCO2)N(C)C(=O)OCc1ccccc1 (stereo not drawn) [Compound 34, Benzyl (1-(benzo[d][1,3]dioxol-5-yl)-1-oxopropan-2-yl)(methyl)carbamate] was tested. Which IC50 did it give?
Its IC50 is 51.9 ± 1.18 µM.

With CCCC(C(=O)c1ccccc1)N(C)C(=O)Oc1ccccc1 (stereo not drawn) [Compound 14, Phenyl methyl(1-oxo-1-phenylpentan-2-yl)carbamate] as the molecule, how does the IC50 read?
Its IC50 is 16.55 ± 0.13 µM.

With COC(=O)N(C)C(C)C(=O)c1ccc(Cl)cc1 (stereo not drawn) [Compound 8, Methyl (1-(4-chlorophenyl)-1-oxopropan-2-yl)(methyl)carbamate] as the molecule, how does the IC50 read?
The IC50 was 132 ± 4.55 µM.

same assay, conditions: higher value = higher selectivity to BChE

CCN(C(=O)OC)C(C)C(=O)c1ccccc1 (stereo not drawn) [Compound 1, Methyl ethyl(1-oxo-1-phenylpropan-2-yl)carbamate] was tested. Which “SI (index selectivity) = IC50 (AChE)/IC50 (BChE)” value (“SI (index selectivity) = IC50” for short) did it give?
The value was 1.08.

For COC(=O)N(C)C(C)C(=O)c1cccc2ccccc12 (stereo not drawn) [Compound 35], which “SI (index selectivity) = IC50” value is on record?
Its value is 0.84.

How did the “SI (index selectivity) = IC50” value turn out when COC(=O)N(C)C(C)C(=O)c1ccc(Br)cc1 (stereo not drawn) [Compound 9, Methyl (1-(4-bromophenyl)-1-oxopropan-2-yl)(methyl)carbamate] was run?
The value was 1.26.

Which “SI (index selectivity) = IC50” value does the source give for CC(C(=O)c1ccc(Br)cc1)N(C)C(=O)Oc1ccccc1 (stereo not drawn) [Compound 20, Phenyl (1-(4-bromophenyl)-1-oxopropan-2-yl)(methyl)carbamate] here?
The value was 1.17.

With CC(C(=O)c1ccc2c(c1)OCO2)N(C)C(=O)Oc1ccccc1 (stereo not drawn) [Compound 22, Phenyl (1-(benzo[d][1,3]dioxol-5-yl)-1-oxopropan-2-yl)(methyl)carbamate] as the molecule, how does the “SI (index selectivity) = IC50” value read?
Its value is 1.57.

Cc1ccc(C(=O)C(C)N(C)C(=O)Oc2ccccc2)cc1 (stereo not drawn) [Compound 18, Phenyl methyl(1-oxo-1-(p-tolyl)propan-2-yl)carbamate] was tested. Which “SI (index selectivity) = IC50” value did it give?
Its value is 1.58.

With CCC(C(=O)c1ccccc1)N(CC)C(=O)OCc1ccccc1 (stereo not drawn) [Compound 25, Benzyl ethyl(1-oxo-1-phenylbutan-2-yl)carbamate] as the molecule, how does the “SI (index selectivity) = IC50” value read?
The value was 5.61.

Which “SI (index selectivity) = IC50” value does the source give for COC(=O)N(C)C(C)C(=O)c1ccc(C)cc1 (stereo not drawn) [Compound 7, Methyl methyl(1-oxo-1-(p-tolyl)propan-2-yl)carbamate] here?
The value was 0.28.

With COc1ccc(C(=O)C(C)N(C)C(=O)OCc2ccccc2)cc1 (stereo not drawn) [Compound 29, Benzyl (1-(4-methoxyphenyl)-1-oxopropan-2-yl)(methyl)carbamate] as the molecule, how does the “SI (index selectivity) = IC50” value read?
The value was 1.09.

Which “SI (index selectivity) = IC50” value does the source give for CC(C(=O)c1ccc(Cl)c2ccccc12)N(C)C(=O)OCc1ccccc1 (stereo not drawn) [Compound 40, Benzyl (1-(4-chloronaphthalen-1-yl)-1-oxopropan-2-yl)(methyl)carbamate] here?
Its value is 2.42.

With CC(C(=O)c1ccc(Cl)c2ccccc12)N(C)C(=O)Oc1ccccc1 (stereo not drawn) [Compound 37, Phenyl (1-(4-chloronaphthalen-1-yl)-1-oxopropan-2-yl)(methyl)carbamate] as the molecule, how does the “SI (index selectivity) = IC50” value read?
The value was 2.26.

How did the “SI (index selectivity) = IC50” value turn out when Cc1cccc(C(=O)C(C)N(C)C(=O)Oc2ccccc2)c1 (stereo not drawn) [Compound 15, Phenyl methyl(1-oxo-1-(m-tolyl)propan-2-yl)carbamate] was run?
The value was 3.43.

Cc1ccc(C(=O)C(C)N(C)C(=O)OCc2ccccc2)cc1C (stereo not drawn) [Compound 33, Benzyl (1-(3,4-dimethylphenyl)-1-oxopropan-2-yl)(methyl)carbamate] was tested. Which “SI (index selectivity) = IC50” value did it give?
Its value is 4.55.

How did the “SI (index selectivity) = IC50” value turn out when Cc1ccc(C(=O)C(C)N(C)C(=O)Oc2ccccc2)cc1C (stereo not drawn) [Compound 21, Phenyl (1-(3,4-dimethylphenyl)-1-oxopropan-2-yl)(methyl)carbamate] was run?
The value was 1.82.

COc1ccc(C(=O)C(C)N(C)C(=O)Oc2ccccc2)cc1 (stereo not drawn) [Compound 17, Phenyl (1-(4-methoxyphenyl)-1-oxopropan-2-yl)(methyl)carbamate] was tested. Which “SI (index selectivity) = IC50” value did it give?
The value was 0.85.

With COC(=O)N(C)C(C)C(=O)c1cccc(Cl)c1 (stereo not drawn) [Compound 5, Methyl (1-(3-chlorophenyl)-1-oxopropan-2-yl)(methyl)carbamate] as the molecule, how does the “SI (index selectivity) = IC50” value read?
Its value is 2.90.

Which “SI (index selectivity) = IC50” value does the source give for CC(C(=O)c1ccc2c(c1)OCO2)N(C)C(=O)OCc1ccccc1 (stereo not drawn) [Compound 34, Benzyl (1-(benzo[d][1,3]dioxol-5-yl)-1-oxopropan-2-yl)(methyl)carbamate] here?
The value was 1.46.

CCCC(C(=O)c1ccccc1)N(C)C(=O)Oc1ccccc1 (stereo not drawn) [Compound 14, Phenyl methyl(1-oxo-1-phenylpentan-2-yl)carbamate] was tested. Which “SI (index selectivity) = IC50” value did it give?
The value was 5.92.

For COC(=O)N(C)C(C)C(=O)c1ccc(Cl)cc1 (stereo not drawn) [Compound 8, Methyl (1-(4-chlorophenyl)-1-oxopropan-2-yl)(methyl)carbamate], which “SI (index selectivity) = IC50” value is on record?
The value was 2.35.

molecular target: T2, AChE from electric eel (Electrophorus electricus, UniProt O42275); experiment: biochemical; settings: mean ± SD, n = three experiments; 25 °C, PBS pH 7.4, substrate ATCh 40 μM
T2 construct: purchased Sigma, St. Louis, MO, USA
T2 sequence (O42275 24-633): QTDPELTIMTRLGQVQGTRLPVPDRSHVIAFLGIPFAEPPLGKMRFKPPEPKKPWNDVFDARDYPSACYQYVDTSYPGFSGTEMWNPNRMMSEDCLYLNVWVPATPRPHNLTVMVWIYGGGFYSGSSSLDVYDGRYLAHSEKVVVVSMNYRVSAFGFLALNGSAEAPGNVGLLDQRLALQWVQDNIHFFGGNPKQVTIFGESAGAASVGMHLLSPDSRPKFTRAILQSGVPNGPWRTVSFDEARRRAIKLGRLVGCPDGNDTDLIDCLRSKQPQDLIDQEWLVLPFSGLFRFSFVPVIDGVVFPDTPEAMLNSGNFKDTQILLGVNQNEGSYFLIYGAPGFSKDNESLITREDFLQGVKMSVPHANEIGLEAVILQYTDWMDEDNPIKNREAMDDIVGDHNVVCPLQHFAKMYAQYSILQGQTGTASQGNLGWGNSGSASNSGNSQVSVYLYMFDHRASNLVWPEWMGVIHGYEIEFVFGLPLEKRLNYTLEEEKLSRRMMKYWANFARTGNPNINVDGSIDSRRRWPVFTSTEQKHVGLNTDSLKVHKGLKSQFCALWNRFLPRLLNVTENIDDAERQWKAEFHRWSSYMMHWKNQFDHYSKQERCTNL

CCN(C(=O)OC)C(C)C(=O)c1ccccc1 (stereo not drawn) [Compound 1, Methyl ethyl(1-oxo-1-phenylpropan-2-yl)carbamate] was tested. Which IC50 did it give?
Its IC50 is 245.3 ± 0.75 µM.

For COC(=O)N(C)C(C)C(=O)c1cccc2ccccc12 (stereo not drawn) [Compound 35], which IC50 is on record?
Its IC50 is 127 ± 1.74 µM.

For COC(=O)N(C)C(C)C(=O)c1ccc(Br)cc1 (stereo not drawn) [Compound 9, Methyl (1-(4-bromophenyl)-1-oxopropan-2-yl)(methyl)carbamate], which IC50 is on record?
Its IC50 is 282.7 ± 0.71 µM.

CC(C(=O)c1ccc(Br)cc1)N(C)C(=O)Oc1ccccc1 (stereo not drawn) [Compound 20, Phenyl (1-(4-bromophenyl)-1-oxopropan-2-yl)(methyl)carbamate] was tested. Which IC50 did it give?
Its IC50 is 51.5 ± 1.38 µM.

Which IC50 does the source give for CC(C(=O)c1ccc2c(c1)OCO2)N(C)C(=O)Oc1ccccc1 (stereo not drawn) [Compound 22, Phenyl (1-(benzo[d][1,3]dioxol-5-yl)-1-oxopropan-2-yl)(methyl)carbamate] here?
The IC50 was 84 ± 0.43 µM.

Cc1ccc(C(=O)C(C)N(C)C(=O)Oc2ccccc2)cc1 (stereo not drawn) [Compound 18, Phenyl methyl(1-oxo-1-(p-tolyl)propan-2-yl)carbamate] was tested. Which IC50 did it give?
The IC50 was 139 ± 1.45 µM.

With CCC(C(=O)c1ccccc1)N(CC)C(=O)OCc1ccccc1 (stereo not drawn) [Compound 25, Benzyl ethyl(1-oxo-1-phenylbutan-2-yl)carbamate] as the molecule, how does the IC50 read?
The IC50 was 119 ± 1.23 µM.

Which IC50 does the source give for COC(=O)N(C)C(C)C(=O)c1ccc(C)cc1 (stereo not drawn) [Compound 7, Methyl methyl(1-oxo-1-(p-tolyl)propan-2-yl)carbamate] here?
Its IC50 is 50.6 ± 0.63 µM.

COc1ccc(C(=O)C(C)N(C)C(=O)OCc2ccccc2)cc1 (stereo not drawn) [Compound 29, Benzyl (1-(4-methoxyphenyl)-1-oxopropan-2-yl)(methyl)carbamate] was tested. Which IC50 did it give?
The IC50 was 62.6 ± 0.65 µM.

Which IC50 does the source give for CC(C(=O)c1ccc(Cl)c2ccccc12)N(C)C(=O)OCc1ccccc1 (stereo not drawn) [Compound 40, Benzyl (1-(4-chloronaphthalen-1-yl)-1-oxopropan-2-yl)(methyl)carbamate] here?
Its IC50 is 103.3 ± 0.41 µM.

How did the IC50 turn out when CC(C(=O)c1ccc(Cl)c2ccccc12)N(C)C(=O)Oc1ccccc1 (stereo not drawn) [Compound 37, Phenyl (1-(4-chloronaphthalen-1-yl)-1-oxopropan-2-yl)(methyl)carbamate] was run?
Its IC50 is 30.6 ± 1.57 µM.

Cc1cccc(C(=O)C(C)N(C)C(=O)Oc2ccccc2)c1 (stereo not drawn) [Compound 15, Phenyl methyl(1-oxo-1-(m-tolyl)propan-2-yl)carbamate] was tested. Which IC50 did it give?
The IC50 was 166 ± 2.75 µM.

How did the IC50 turn out when Cc1ccc(C(=O)C(C)N(C)C(=O)OCc2ccccc2)cc1C (stereo not drawn) [Compound 33, Benzyl (1-(3,4-dimethylphenyl)-1-oxopropan-2-yl)(methyl)carbamate] was run?
The IC50 was 76.8 ± 2.76 µM.

With Cc1ccc(C(=O)C(C)N(C)C(=O)Oc2ccccc2)cc1C (stereo not drawn) [Compound 21, Phenyl (1-(3,4-dimethylphenyl)-1-oxopropan-2-yl)(methyl)carbamate] as the molecule, how does the IC50 read?
Its IC50 is 47.9 ± 2.09 µM.

For COc1ccc(C(=O)C(C)N(C)C(=O)Oc2ccccc2)cc1 (stereo not drawn) [Compound 17, Phenyl (1-(4-methoxyphenyl)-1-oxopropan-2-yl)(methyl)carbamate], which IC50 is on record?
The IC50 was 90.21 ± 0.73 µM.

How did the IC50 turn out when COC(=O)N(C)C(C)C(=O)c1cccc(Cl)c1 (stereo not drawn) [Compound 5, Methyl (1-(3-chlorophenyl)-1-oxopropan-2-yl)(methyl)carbamate] was run?
Its IC50 is 330 ± 42.1 µM.

Which IC50 does the source give for CC(C(=O)c1ccc2c(c1)OCO2)N(C)C(=O)OCc1ccccc1 (stereo not drawn) [Compound 34, Benzyl (1-(benzo[d][1,3]dioxol-5-yl)-1-oxopropan-2-yl)(methyl)carbamate] here?
Its IC50 is 75.6 ± 1.25 µM.

CCCC(C(=O)c1ccccc1)N(C)C(=O)Oc1ccccc1 (stereo not drawn) [Compound 14, Phenyl methyl(1-oxo-1-phenylpentan-2-yl)carbamate] was tested. Which IC50 did it give?
The IC50 was 97.97 ± 0.36 µM.

Which IC50 does the source give for COC(=O)N(C)C(C)C(=O)c1ccc(Cl)cc1 (stereo not drawn) [Compound 8, Methyl (1-(4-chlorophenyl)-1-oxopropan-2-yl)(methyl)carbamate] here?
Its IC50 is 309 ± 6.16 µM.
